Measurements reported in paper PMC10797613 (ACS Chemical Neuroscience, 2024).
Several values for one entry are separate records, joined by “and”; a condition that tells them apart may be missing. Equal entries are not always repeated. Where two headings read alike, the source gives them in different places.

Assays:
H1 = H1 (Homo sapiens, UniProt P35367); experiment: biochemical; format: binding
C57BL/6J mice [1] = experiment: mouse head twitch response; format: in vivo; details: for time of peak HTR effects / Emax(HTR events/30 min) / ED50(mg/kg s.c.) for HTR: mice; for time of peak HTR effects: post drug administration; for Emax(HTR events/30 min) / ED50(mg/kg s.c.) for HTR: s.c.; for Emax(HTR events/30 min): maximum effect; for ED50(mg/kg s.c.) for HTR: 30 min session, ascending phase of HTR curve; for HTR activity (in words): mouse, in vivo
5-HT2B receptor = 5-HT2B receptor (Homo sapiens, UniProt P41595); experiment: Gαq-mediated calcium flux assay; format: cell-based; details: 95% CI in brackets; * = potentially ambiguous
5-HT2B receptor, sequence (P41595 whole entry): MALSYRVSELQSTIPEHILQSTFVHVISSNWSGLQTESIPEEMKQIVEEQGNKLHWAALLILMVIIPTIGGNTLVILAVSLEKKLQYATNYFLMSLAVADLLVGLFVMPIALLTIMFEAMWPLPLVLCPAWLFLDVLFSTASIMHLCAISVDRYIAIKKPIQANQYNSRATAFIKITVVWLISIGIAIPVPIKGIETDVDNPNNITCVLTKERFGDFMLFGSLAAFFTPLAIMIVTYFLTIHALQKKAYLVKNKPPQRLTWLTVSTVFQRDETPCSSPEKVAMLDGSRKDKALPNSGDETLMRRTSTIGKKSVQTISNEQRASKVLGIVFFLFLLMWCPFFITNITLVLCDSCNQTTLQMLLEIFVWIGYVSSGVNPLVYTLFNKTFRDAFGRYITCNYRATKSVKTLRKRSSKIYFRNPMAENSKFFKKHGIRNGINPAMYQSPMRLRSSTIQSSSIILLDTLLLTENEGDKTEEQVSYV

5-HT2A receptor = 5-HT2A receptor (Homo sapiens, UniProt P28223); experiment: Gαq-mediated calcium flux assay; format: cell-based; details: read-out: Emax (% 5-HT) 5-HT2A calcium flux, 95% CI in brackets
5-HT2A receptor, sequence (P28223 whole entry): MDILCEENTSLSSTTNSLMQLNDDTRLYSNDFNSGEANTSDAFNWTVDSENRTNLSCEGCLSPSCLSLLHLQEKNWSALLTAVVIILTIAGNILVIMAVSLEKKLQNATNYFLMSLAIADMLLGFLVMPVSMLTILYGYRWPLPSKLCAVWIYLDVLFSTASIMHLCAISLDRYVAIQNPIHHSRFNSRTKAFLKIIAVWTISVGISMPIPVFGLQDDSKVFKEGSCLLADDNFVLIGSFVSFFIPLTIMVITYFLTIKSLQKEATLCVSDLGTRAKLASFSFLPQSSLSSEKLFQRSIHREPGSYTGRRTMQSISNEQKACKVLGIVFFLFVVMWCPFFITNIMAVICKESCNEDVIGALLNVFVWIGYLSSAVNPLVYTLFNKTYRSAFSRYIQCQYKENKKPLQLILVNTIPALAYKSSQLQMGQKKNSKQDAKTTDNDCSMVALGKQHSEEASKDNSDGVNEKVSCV

C57BL/6J mice [2] = experiment: locomotor activity; format: in vivo, mouse; details: s.c., 30 min testing session
5-HT2C receptor = target: T1, 5-HT2C receptor (Homo sapiens, UniProt P28335); experiment: Gαq-mediated calcium flux assay; format: cell-based
T1 sequence (P28335 33-458): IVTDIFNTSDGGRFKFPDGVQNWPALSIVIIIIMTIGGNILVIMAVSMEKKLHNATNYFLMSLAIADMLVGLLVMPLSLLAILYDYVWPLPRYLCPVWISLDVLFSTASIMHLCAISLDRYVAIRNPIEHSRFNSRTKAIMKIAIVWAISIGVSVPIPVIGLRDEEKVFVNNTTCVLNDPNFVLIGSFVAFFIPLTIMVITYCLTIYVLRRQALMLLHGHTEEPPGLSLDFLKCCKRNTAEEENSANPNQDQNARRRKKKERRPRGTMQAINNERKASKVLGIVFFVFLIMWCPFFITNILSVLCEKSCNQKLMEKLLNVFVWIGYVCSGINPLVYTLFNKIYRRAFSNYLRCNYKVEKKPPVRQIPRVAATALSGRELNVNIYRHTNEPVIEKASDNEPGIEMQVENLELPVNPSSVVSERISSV

5-HT1B = 5-HT1B (Homo sapiens, UniProt P28222); experiment: GPCR Tango assay measuring β-arrestin recruitment; format: cell-based; details: up to 50 μM
5-HT1B, sequence (P28222 whole entry): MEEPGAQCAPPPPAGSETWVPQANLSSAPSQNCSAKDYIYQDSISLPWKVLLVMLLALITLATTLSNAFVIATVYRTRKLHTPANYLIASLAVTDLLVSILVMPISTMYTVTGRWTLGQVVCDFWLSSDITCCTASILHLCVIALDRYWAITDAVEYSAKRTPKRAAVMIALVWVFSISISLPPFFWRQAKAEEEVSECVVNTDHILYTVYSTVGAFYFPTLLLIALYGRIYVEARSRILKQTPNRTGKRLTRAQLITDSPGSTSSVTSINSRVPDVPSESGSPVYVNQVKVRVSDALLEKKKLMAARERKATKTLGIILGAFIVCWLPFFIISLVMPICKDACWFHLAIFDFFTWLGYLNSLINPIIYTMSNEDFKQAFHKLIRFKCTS

C57BL/6J mice [3] = experiment: body temperature change from pre to post session in mice; format: in vivo, mouse; details: highest dose tested
5-HT7A = 5-HT7A (Homo sapiens, UniProt P34969); experiment: GPCR Tango assay measuring β-arrestin recruitment; format: cell-based; details: EC50 5-HT7A Tango, 95% CI in brackets; * = ambiguous
5-HT7A, sequence (P34969 1-445 isoform P34969-2): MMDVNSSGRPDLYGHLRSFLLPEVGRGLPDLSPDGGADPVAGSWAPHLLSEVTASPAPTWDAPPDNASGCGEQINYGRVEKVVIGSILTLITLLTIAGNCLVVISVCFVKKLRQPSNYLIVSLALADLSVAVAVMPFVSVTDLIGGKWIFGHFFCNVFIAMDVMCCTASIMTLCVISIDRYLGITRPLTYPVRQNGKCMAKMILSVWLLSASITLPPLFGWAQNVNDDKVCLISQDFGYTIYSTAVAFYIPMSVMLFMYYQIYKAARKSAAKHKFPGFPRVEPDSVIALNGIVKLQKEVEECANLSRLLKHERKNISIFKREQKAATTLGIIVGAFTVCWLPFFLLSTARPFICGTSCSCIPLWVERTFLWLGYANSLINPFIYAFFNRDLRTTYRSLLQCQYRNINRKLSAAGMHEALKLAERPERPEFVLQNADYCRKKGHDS

C57BL/6J mice [4] = details: cited from earlier work
[5] = s.c., identical testing conditions

H1, sequence (P35367 whole entry): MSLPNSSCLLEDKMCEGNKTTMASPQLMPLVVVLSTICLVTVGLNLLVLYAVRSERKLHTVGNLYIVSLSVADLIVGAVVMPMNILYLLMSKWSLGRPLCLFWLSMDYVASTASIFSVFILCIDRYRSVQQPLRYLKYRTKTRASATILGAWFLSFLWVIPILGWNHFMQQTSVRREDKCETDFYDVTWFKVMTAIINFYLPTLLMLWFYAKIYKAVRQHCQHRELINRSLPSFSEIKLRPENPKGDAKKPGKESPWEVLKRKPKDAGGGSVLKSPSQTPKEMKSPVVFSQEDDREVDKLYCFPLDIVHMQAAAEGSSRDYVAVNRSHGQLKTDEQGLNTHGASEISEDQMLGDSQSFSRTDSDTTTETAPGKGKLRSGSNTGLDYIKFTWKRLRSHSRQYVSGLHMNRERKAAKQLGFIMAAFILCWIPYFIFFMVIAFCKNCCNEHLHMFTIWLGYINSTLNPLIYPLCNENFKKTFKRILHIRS

C=CCNCCc1c[nH]c2cccc(O)c12.C=CCNCCc1c[nH]c2cccc(O)c12.O=C(O)/C=C/C(=O)O [4-HO-NALT, 3-(2-(Allylamino)ethyl)-1H-indol-4-ol Hemifumarate]
Ki (H1): 467 nM
time of peak HTR effects (C57BL/6J mice [1]): 5 to 15 min
Emax(HTR events/30 min) (C57BL/6J mice [1]): 77 HTR events/30 min and 76.6 HTR events/30 min
Emax (% 5-HT) 5-HT2B calcium flux (5-HT2B receptor): 88 % 5-HT

O=C(O)/C=C/C(=O)O.Oc1cccc2[nH]cc(CCNCc3ccccc3)c12 [4-HO-NBnT, 3-(2-(Benzylamino)ethyl)-1H-indol-4-ol Fumarate]
Emax (5-HT2A receptor): 70%
decrease in HTR potency relative to psilocin (C57BL/6J mice [1]; mg/kg basis): 10 fold
time of peak HTR effects (C57BL/6J mice [1]): 5 to 15 min
Emax(HTR events/30 min) (C57BL/6J mice [1]): 26.1 HTR events/30 min
Emax (% 5-HT) 5-HT2B calcium flux (5-HT2B receptor): 11 % 5-HT
effect on locomotor activity (in words) (C57BL/6J mice [2]): reduced the total locomotor activity

CCNCCc1c[nH]c2cccc(O)c12.CCNCCc1c[nH]c2cccc(O)c12.O=C(O)CCC(=O)O [4-HO-NET, 3-(2-(Ethylamino)ethyl)-1H-indol-4-ol Hemisuccinate]
delay of maximum HTR occurrence compared to 4-HO-NALT (C57BL/6J mice [1]; at equivalent doses): 10 min
time of peak HTR effects (C57BL/6J mice [1]): 15 to 25 min
Emax(HTR events/30 min) (C57BL/6J mice [1]): 39.8 HTR events/30 min
effect on locomotor activity (in words) (C57BL/6J mice [2]): reduced the total locomotor activity

CCCNCCc1c[nH]c2cccc(O)c12.CCCNCCc1c[nH]c2cccc(O)c12.O=C(O)/C=C/C(=O)O [4-HO-NPT, 3-(2-(Propylamino)ethyl)-1H-indol-4-ol Hemifumarate]
time of peak HTR effects (C57BL/6J mice [1]): 5 to 15 min
ED50(mg/kg s.c.) for HTR (C57BL/6J mice [1]): 2.9 mg/kg
Emax(HTR events/30 min) (C57BL/6J mice [1]): 52 HTR events/30 min and 52.1 HTR events/30 min
effect on locomotor activity (in words) (C57BL/6J mice [2]): reduced the total locomotor activity

O=C(O)/C=C/C(=O)O.Oc1cccc2[nH]cc(CCNC3CCCCC3)c12 [4-HO-NcHT, 3-(2-(Cyclohexylamino)ethyl)-1H-indol-4-ol Fumarate]
5-HT2C functional activity (in words) (5-HT2C receptor): inactive
HTR activity (in words) (C57BL/6J mice [1]): inactive
5-HT1B agonist activity Tango (in words) (5-HT1B): inactive

CC(C)NCCc1c[nH]c2cccc(O)c12.O=C(O)/C=C/C(=O)O [4-HO-NiPT, 3-(2-(Isopropylamino)ethyl)-1H-indol-4-ol Fumarate]
5-HT2C functional activity (in words) (5-HT2C receptor): weak partial agonists
time of peak HTR effects (C57BL/6J mice [1]): 15 to 25 min
ED50(mg/kg s.c.) for HTR (C57BL/6J mice [1]): 3.3 mg/kg
Emax(HTR events/30 min) (C57BL/6J mice [1]): 27 HTR events/30 min and 27.5 HTR events/30 min
hypothermia Emax (C57BL/6J mice [3]): −1.7 °C

CCCCNCCc1c[nH]c2cccc(O)c12.O=C(O)/C=C/C(=O)O [4-HO-NnBT, 3-(2-(Butylamino)ethyl)-1H-indol-4-ol Fumarate]
5-HT2C functional activity (in words) (5-HT2C receptor): weak partial agonists
HTR activity (in words) (C57BL/6J mice [1]): inactive
EC50 (5-HT7A): 1000 nM
effect on locomotor activity (in words) (C57BL/6J mice [2]): reduced the total locomotor activity

CC(C)(C)NCCc1c[nH]c2cccc(O)c12.CC(C)(C)NCCc1c[nH]c2cccc(O)c12.O=C(O)/C=C/C(=O)O [4-HO-NtBT, 3-(2-(tert-Butylamino)ethyl)-1H-indol-4-ol Hemifumarate]
5-HT2C functional activity (in words) (5-HT2C receptor): inactive
HTR activity (in words) (C57BL/6J mice [1]): inactive
5-HT1B agonist activity Tango (in words) (5-HT1B): inactive

CNCCc1c[nH]c2cccc(O)c12 [norpsilocin, 4-hydroxy-N-methyltryptamine]
ED50(mg/kg s.c.) for HTR (C57BL/6J mice [4]; [5]): >30 mg/kg
HTR activity (in words) (C57BL/6J mice [4]; same assay setup): failed to induce psychedelic-like HTR activity

CN(C)CCc1c[nH]c2cccc(O)c12 [psilocin, 4-hydroxy-N,N-dimethyltryptamine]
reported HTR ED50 potency (C57BL/6J mice [4]): 0.11 to 0.17 mg/kg
ED50(mg/kg s.c.) for HTR (C57BL/6J mice [4]; [5]): 0.11 mg/kg
Emax(HTR events/30 min) (C57BL/6J mice [4]; [5]): 23 HTR events/30 min
